The target of one assay is T1, KDM4A (Homo sapiens, UniProt O75164).
T1 sequence (O75164 2-1064): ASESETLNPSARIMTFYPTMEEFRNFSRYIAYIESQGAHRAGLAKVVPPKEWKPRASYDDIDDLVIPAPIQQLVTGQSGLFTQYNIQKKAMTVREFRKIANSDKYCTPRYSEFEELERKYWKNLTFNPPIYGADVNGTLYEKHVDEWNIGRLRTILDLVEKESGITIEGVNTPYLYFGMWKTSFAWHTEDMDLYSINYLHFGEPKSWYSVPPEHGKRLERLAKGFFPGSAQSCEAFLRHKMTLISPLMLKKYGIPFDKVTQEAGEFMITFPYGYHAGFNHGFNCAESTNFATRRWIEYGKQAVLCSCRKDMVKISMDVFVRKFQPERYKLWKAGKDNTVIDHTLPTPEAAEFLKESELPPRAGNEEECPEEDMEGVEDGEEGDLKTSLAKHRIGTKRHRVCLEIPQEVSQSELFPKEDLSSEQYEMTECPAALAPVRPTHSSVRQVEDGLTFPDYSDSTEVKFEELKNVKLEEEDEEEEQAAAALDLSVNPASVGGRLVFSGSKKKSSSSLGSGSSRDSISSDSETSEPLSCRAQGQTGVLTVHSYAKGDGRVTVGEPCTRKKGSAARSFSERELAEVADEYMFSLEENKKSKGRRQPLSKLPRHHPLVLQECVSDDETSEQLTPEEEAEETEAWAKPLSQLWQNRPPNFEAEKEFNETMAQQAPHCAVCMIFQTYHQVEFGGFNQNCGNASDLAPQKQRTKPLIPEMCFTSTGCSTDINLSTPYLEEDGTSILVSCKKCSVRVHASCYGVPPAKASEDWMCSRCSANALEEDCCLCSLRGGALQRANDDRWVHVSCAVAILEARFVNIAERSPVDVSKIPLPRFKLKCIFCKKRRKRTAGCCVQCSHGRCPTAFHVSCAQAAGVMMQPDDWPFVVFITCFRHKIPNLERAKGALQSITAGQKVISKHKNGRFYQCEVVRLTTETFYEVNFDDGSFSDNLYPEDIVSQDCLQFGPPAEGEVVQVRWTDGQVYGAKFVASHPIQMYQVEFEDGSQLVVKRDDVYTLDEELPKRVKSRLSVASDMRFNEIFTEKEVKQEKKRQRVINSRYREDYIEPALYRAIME
The assay is described as follows: SPR (Biacore T200), protein immobilized on CM5 chip. Type of assay: binding. In general terms: In SPR one partner is held on a chip, and binding of the other changes the refractive index at the surface.

For the next assay, the target named is T2, KDM4C (Homo sapiens, UniProt Q9H3R0).
T2 sequence (Q9H3R0 1-1056): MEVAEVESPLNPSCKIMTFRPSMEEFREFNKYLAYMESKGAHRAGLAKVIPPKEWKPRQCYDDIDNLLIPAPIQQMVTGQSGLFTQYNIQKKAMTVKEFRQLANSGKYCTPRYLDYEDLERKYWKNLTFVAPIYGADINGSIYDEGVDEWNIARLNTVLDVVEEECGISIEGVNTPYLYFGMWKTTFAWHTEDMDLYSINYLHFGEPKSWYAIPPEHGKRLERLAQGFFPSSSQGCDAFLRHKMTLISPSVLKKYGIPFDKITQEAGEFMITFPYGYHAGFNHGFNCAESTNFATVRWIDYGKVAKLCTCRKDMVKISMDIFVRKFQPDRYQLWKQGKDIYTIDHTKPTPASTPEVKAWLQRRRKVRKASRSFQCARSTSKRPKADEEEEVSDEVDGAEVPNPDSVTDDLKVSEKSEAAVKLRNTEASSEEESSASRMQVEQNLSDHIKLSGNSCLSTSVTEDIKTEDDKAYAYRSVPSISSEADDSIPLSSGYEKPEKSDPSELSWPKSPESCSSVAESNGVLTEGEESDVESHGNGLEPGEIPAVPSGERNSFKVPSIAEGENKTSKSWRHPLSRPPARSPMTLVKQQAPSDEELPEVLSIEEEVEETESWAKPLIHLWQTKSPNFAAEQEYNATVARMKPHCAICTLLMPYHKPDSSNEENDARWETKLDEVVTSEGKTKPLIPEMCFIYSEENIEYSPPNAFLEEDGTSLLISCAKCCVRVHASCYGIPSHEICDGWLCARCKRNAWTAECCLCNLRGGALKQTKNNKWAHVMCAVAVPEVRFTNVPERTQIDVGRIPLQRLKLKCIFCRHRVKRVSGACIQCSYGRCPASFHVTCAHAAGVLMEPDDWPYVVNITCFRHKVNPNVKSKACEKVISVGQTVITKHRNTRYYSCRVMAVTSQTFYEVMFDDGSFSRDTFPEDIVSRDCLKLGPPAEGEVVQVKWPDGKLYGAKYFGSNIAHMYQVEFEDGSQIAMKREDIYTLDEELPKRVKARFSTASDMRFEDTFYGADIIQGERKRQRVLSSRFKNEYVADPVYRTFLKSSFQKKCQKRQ
The assay is described as above. It counts as binding.

What is called pKd is the Kd on a negative log10 scale, so that one unit is a factor of ten. A high value points to a low Kd.

pKd: −log10 of the molar value.

For `CC(C)C(=O)NC(c1ccco1)c1ccc2cccnc2c1O` (stereo not shown) [SD70], the pKd on KDM4A was 4.74; at KDM4C, 5.59.
In the case of `O=C(N/N=C/c1c(O)ccc2ccccc12)c1ccccc1O` [SD49-7], the pKd is 6.01 on KDM4A and 5.97 on KDM4C.

(Values after article PMC9274755, “KDM4 inhibitor SD49-7 attenuates leukemia stem cell via KDM4A/MDM2/p21^CIP1 axis” (Theranostics, 2022).)
